Measurements from US11236055B2 (Venenum Biodesign, LLC, priority 2016, dated 2022).

Legend:
[1] = Pharmacokinetic profile in mice; type: in vivo; conditions: mouse; fasted male Hilltop mice, 10 mg/kg oral gavage, plasma, mean of three mice
Description: Pharmacokinetic Profile in Mice
In this series of studies, the pharmacokinetic profile characteristics of compounds of the present invention were evaluated. The plasma concentration levels of the compounds were monitored in the blood stream (i.e., plasma) after oral gavage using Cmax, and area under the curve (AUC).
8 week old male Hilltop mice were fasted overnight. Animals were randomized into groups (n=9) by body weight. Mice were dosed with 10 mg/kg compound (in 20% PEG400/80% 0.5% carboxymethylcellulose (medium viscosity)+0.25% Tween-80) at a volume of 10 mL/kg through oral gavage. Blood was collected via orbital bleeding at 0, 0.25, 0.5, 1, 2, and 4 h post-dose, with no one mouse having more than 3 blood draws. Blood was collected in EDTA coated tubes. Samples were stored at −20° C. until analysis.
Quantitation of compound levels in plasma was accomplished by LC-MS/MS analysis. Standard curve and quality control samples were prepared in male CD-1 mouse plasma containing EDTA K^2+ as an anticoagulant at final concentrations ranging from 500 to 0.1 ng/mL. The plasma samples, calibration curve standards, and quality control samples were prepared in an identical method in a 96-well deep plate (1 mL) with a quenching solution (1:1 mixed acetonitrile:methanol containing the internal standard Reserpine @ 400 ng/mL). Low volume samples were supplemented with CD-1 mouse plasma. The plate was mixed on multi-tube votex for 1 min and centrifuged at 4000 rpm for 30 min at 4° C. (Sorvall® Super T21) before LC-MS/MS analysis. LC conditions were developed and optimized based on each compound as needed. The outlet of the column was coupled to AB Sciex 4000 QTrap Mass Spectrometer (AB Sciex, Brugg Switzerland). Detection was carried out using multiple reaction monitoring mode with positive-ion detection focusing. The pharmacokinetic parameters were derived from the plasma-time data and calculated using the standard non-compartmental method with WinNonlin (Pharsight, Mountain View, Calif.) or PK Solver (Comp. Meth. Prog. Biomed. (2010), 99, 306-314).
Values reported are the mean plasma concentration of three mice.

human TGR5 receptor = biological target: T1, human TGR5 receptor (Homo sapiens, UniProt Q8TDU6); experiment: Human TGR5 cAMP production assay; type: cell-based; conditions: human TGR5, luminescent cAMP assay; coded A-D; read-out: Human TGR5 Lum. cAMP Activity (EC50)
T1 construct: host or cells: CHO-K1 (hTGR5-CHO cells)
T1 sequence (Q8TDU6 1-330): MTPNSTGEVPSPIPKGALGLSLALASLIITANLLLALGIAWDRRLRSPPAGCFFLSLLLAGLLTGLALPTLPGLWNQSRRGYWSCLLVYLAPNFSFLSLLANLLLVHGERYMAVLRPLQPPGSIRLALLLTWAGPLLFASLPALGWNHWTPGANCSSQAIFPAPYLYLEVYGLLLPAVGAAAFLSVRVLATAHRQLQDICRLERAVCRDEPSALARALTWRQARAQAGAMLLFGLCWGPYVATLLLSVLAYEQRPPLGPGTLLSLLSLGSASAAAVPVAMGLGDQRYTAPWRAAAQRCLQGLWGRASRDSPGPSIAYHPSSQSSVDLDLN
Method in brief: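 CHO-K1 cells stably expressing human TGR5, with IBMX and cAMP antibody, were exposed to half-log serially diluted compound for 1 h at room temperature. cAMP measured by enzyme-fragment complementation luminescence (XS+ kit) after overnight incubation; EC50 values reported.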

mouse TGR5 receptor [2] = biological target: T2, mouse TGR5 receptor (Mus musculus, UniProt Q80SS6); experiment: Mouse TGR5 cAMP production assay (HTRF, Cisbio cAMP HiRange); type: cell-based; conditions: HEK293-EBNA cells overexpressing mouse TGR5, HTRF cAMP HiRange; coded A-D
T2 construct: expressed in transfected cells; host or cells: HEK293-EBNA (293 c18, ATCC CRL10852), Hygromycin B selection
T2 sequence (Q80SS6 1-329): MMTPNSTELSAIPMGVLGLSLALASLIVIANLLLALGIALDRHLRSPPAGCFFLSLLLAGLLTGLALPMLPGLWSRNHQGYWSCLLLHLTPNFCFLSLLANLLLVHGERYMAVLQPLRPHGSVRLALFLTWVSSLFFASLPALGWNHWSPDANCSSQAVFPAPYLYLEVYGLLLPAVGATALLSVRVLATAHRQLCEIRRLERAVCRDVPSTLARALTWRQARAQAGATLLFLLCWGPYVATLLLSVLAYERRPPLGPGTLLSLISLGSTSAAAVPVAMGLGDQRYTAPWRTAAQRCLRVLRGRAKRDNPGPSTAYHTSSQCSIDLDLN
Method in brief: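 cAMP read by HTRF competition after 1 h room-temperature compound exposure of mouse TGR5-overexpressing HEK293-EBNA cells. Cells were suspended in serum-free DMEM containing 500 μM IBMX; compounds ran as 12-point half-log dilutions in duplicate; EC50 derived.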

mouse TGR5 receptor [3] = biological target: T2, mouse TGR5 receptor; experiment: Mouse TGR5 cAMP production assay (luminescent, DiscoveRx cAMP XS+); type: cell-based; conditions: HEK293-EBNA cells overexpressing mouse TGR5, luminescent cAMP XS+; coded A-D; read-out: Mouse TGR5 Lum. cAMP Activity (EC50)
From the text: Mouse TGR5 cAMP Production Assay
We evaluated compounds of the present invention for their ability to induce cAMP production in HEK-EBNA cells overexpressing the mouse TGR5 receptor. Human embryonic kidney cells (HEK293-EBNA) stably expressing mouse TGR5 receptor were established using the following procedure. Specifically, a commercially-obtained gene encoding mouse TGR5 (accession number BC116914) from Thermo Scientific (Waltham, Mass.) was cloned into an episomal expression vector. The resulting expression plasmid was then transfected into 293 c18 (ATCC® CRL10852™) cells, which express the Epstein-Barr virus nuclear antigen EBNA1 and can support the replication of episomal vectors. Selection for the plasmid was maintained with Hygromycin B. Cells were cultured and maintained in DMEM (Sigma; cat #6429) supplemented with 10% Fetal Bovine Serum, 1% penicillin/streptomycin, 2 mM L-alanine L-glutamine (GlutaMax), and 250 μg/mL Hygromycin.
Two cAMP production assays were developed.
1. Luminescent cAMP Production Assay
In this first cAMP production assay, the cAMP production was measured using DiscoveRx's cAMP XS+ kit following the manufacturer's recommended protocol.
Briefly, HEK293-EBNA cells stably overexpressing mouse TGR5 were harvested using non-enzymatic cell dissociation buffer (Sigma-Aldrich, St. Louis, Mo.), spun down, then resuspended in serum-free DMEM with 500 μM IBMX at a density of 1.25×10^6 cells/mL. 500 μL of cAMP antibody solution was added to […] of cell suspension and incubated at room temperature for 20 min.
Test compounds were serially diluted (half-log dilutions) in DMSO and then further diluted 1:50 in PBS, 10 mM HEPES buffer. 2 μL of serially diluted compound was added to a 384-well low volume plate (Greiner cat #784075) and centrifuged briefly. 2 μL of the cell/cAMP antibody mixture was then added to each compound-containing well and allowed to incubate at room temperature for one (1) hour. Following incubation, the XS+ kits' ED/Lysis/CL Substrate Working Solution was prepared following the manufacturer's recommended protocol and 4 μL was added to each well of the plate. The plate was then incubated for one (1) hour at room temperature. Following incubation, 4 μL of (Enzyme Acceptor) EA reagent was added to the plate and allowed to incubate overnight at room temperature. Luminescent signal was then detected using the Viewlux instrument (Perkin-Elmer, Waltham, Mass.).
In Table 33, EC50 values for both human and mouse cells were determined according to the TGR5 cAMP assays described above.

Compound | Cmax [1] | EC50 (human TGR5 receptor) | EC50 (mouse TGR5 receptor [2]) | EC50 (mouse TGR5 receptor [3])
CNC(=O)C[C@H](NS(=O)(=O)c1ccccc1C(F)(F)F)c1cccc(-c2ccncc2C)c1 [Compound 5AZ, (S)-N-methyl-3-(3-(3-methylpyridin-4-yl)phenyl)-3-(2-(trifluoromethyl)phenylsulfonamido)propanamide] | 2330 ng/mL | 100 to 999 nM | 100 to 999 nM | –
CCc1cnccc1-c1cccc(C2CN(CCCC(=O)O)CCN2S(=O)(=O)c2cccc(Cl)c2C)c1 (centres unmarked) [Compound 52AA, 4-(4-((3-chloro-2-methylphenyl)sulfonyl)-3-(3-(3-ethylpyridin-4-yl)phenyl)piperazin-1-yl)butanoic acid] | 647 ng/mL | < 100 nM | < 100 nM | –
O=S(=O)(NCc1cccc(-c2cc(C(F)(F)F)ncn2)c1)c1cccc(C(F)(F)F)c1 [Compound 1BJ] | – | 1000 to 30000 nM | – | > 30000 nM
C[C@H](NS(=O)(=O)c1cccc(C(F)(F)F)c1)c1cccc(-c2ccncc2Cl)c1 [Compound 1AX] | – | 100 to 999 nM | – | 100 to 999 nM
C[C@@H](NS(=O)(=O)c1cccc(C(F)(F)F)c1)c1cccc(-c2ccncc2F)c1 [Compound 1BD] | – | 100 to 999 nM | – | 1000 to 30000 nM
COc1cnccc1-c1cccc([C@@H](C)NS(=O)(=O)c2cccc(C(F)(F)F)c2)c1 [Compound 1BE] | – | 100 to 999 nM | – | 100 to 999 nM
Cc1cccc(S(=O)(=O)NCc2cccc(-c3ccncc3)c2)c1 [Compound 2AI] | – | 1000 to 30000 nM | – | 1000 to 30000 nM
O=S(=O)(NCc1ccc(F)c(-c2ccncc2Cl)c1)c1cccc(C(F)(F)F)c1 [Compound 1AT] | – | 1000 to 30000 nM | – | 1000 to 30000 nM
O=S(=O)(NCc1cccc(-c2ccncc2)c1)c1cccc(F)c1 [Compound 2AK] | – | 1000 to 30000 nM | – | > 30000 nM

Now from value to compound:

Cmax [1] | EC50 (human TGR5 receptor) | EC50 (mouse TGR5 receptor [2]) | EC50 (mouse TGR5 receptor [3]) | Compound
122 ng/mL | < 100 nM | < 100 nM | – | Cc1cnccc1-c1cccc([C@H](C)N(CCCC(=O)NCCNS(N)(=O)=O)S(=O)(=O)c2cccc(Cl)c2C)c1 [Compound 37, (S)-4-(3-chloro-2-methyl-N-(1-(3-(3-methylpyridin-4-yl)phenyl)ethyl)phenylsulfonamido)-N-(2-(sulfamoylamino)ethyl)butanamide]
478 ng/mL | < 100 nM | 100 to 999 nM | – | Cc1cnccc1-c1cccc(C2(N(CCCC(=O)NCCS(=O)(=O)O)S(=O)(=O)c3cccc(Cl)c3C)COC2)c1 [Compound 20BN, 2-(4-(3-chloro-2-methyl-N-(3-(3-(3-methylpyridin-4-yl)phenyl)oxetan-3-yl)phenylsulfonamido)butanamido)ethanesulfonic acid]
35.8 ng/mL | < 100 nM | < 100 nM | – | Cc1cnccc1-c1cccc(C(C)(C)N(CCCNC(=O)CS(=O)(=O)O)S(=O)(=O)c2cccc(Cl)c2C)c1 [Compound 31AB, 2-((3-(3-chloro-2-methyl-N-(2-(3-(3-methylpyridin-4-yl)phenyl)propan-2-yl)phenylsulfonamido)propyl)amino)-2-oxoethanesulfonic acid]
14.3 ng/mL | < 100 nM | < 100 nM | – | Cc1cnccc1-c1cccc([C@H](C)N(CCCC(=O)NCCS(=O)(=O)O)S(=O)(=O)c2cccc(Cl)c2C)c1 [Compound 21AG, (S)-2-(4-(3-chloro-2-methyl-N-(1-(3-(3-methylpyridin-4-yl)phenyl)ethyl)phenylsulfonamido)butanamido)ethanesulfonic acid]
1.4 ng/mL | < 100 nM | < 100 nM | – | Cc1cnccc1-c1cccc(C(C)(C)N(CCCC(=O)NCCS(=O)(=O)O)S(=O)(=O)c2cccc(Cl)c2C)c1 [Compound 20AG, 2-(4-(3-chloro-2-methyl-N-(2-(3-(3-methylpyridin-4-yl)phenyl)propan-2-yl)phenylsulfonamido)butanamido)ethanesulfonic acid]
7.5 ng/mL | < 100 nM | < 100 nM | – | Cc1cnccc1-c1cccc([C@H](C)N(CCCC(=O)NCCS(=O)(=O)NCC(=O)O)S(=O)(=O)c2cccc(Cl)c2Cl)c1 [Compound 36AA, (S)-2-(4-(3-chloro-N-(1-(3-(3-methylpyridin-4-yl)phenyl)ethyl)-2-chloro-phenylsulfonamido)butanamido)ethanesulfonamido acetic acid]
2.3 ng/mL | < 100 nM | < 100 nM | – | CCc1cnccc1-c1cccc([C@H](C)N(CCCCC(=O)NCCS(=O)(=O)O)S(=O)(=O)c2cccc(Cl)c2C)c1 [Compound 20AS, (S)-2-(5-(3-chloro-N-(1-(3-(3-ethylpyridin-4-yl)phenyl)ethyl)-2-methylphenylsulfonamido)pentanamido)ethanesulfonic acid]
269 ng/mL | < 100 nM | < 100 nM | – | Cc1cnccc1-c1cccc(C(C)(C)N(CCCC(=O)NCC(N)=O)S(=O)(=O)c2cccc(Cl)c2C)c1 [Compound 21AC, N-(2-amino-2-oxoethyl)-4-(3-chloro-2-methyl-N-(2-(3-(3-methylpyridin-4-yl)phenyl)propan-2-yl)phenylsulfonamido)butanamide]
